Assay results from patent US10908153B2, “Pseudomonas aeruginosa inhibitor compounds” (priority 2015, dated 2021).

Target: T1, PscE-PscG interaction (Pseudomonas aeruginosa, UniProt P95435+Q9I317)
T1 construct: made in house; host or cells: E. coli
Test: ELISA test of inhibition of the PscE-PscG interaction
Assay type: binding
Conditions: for inhibition at 25 µM: read-out: % inhibition PscE-PscG at 50 μm; for inhibition at 50 µM: 4 h, read-out: PscE-PscG at 50 μM; for inhibitory effect compared with clioquinol: ELISA test, 50 μM, Table 2; for PscE-PscG at 50 μM: inhibition by new synthetic analogues at 50 μM, PscG 2.2 μM, PscE solution 3 μM
Description: 50 μL of PscG protein at 1 μM (for screening libraries) or 2.2 μM (for screening newly synthesized molecules) is incubated in a NUNC 96-well plate for 8 h at 4° C. The wells are washed three times with 200 μL of 1× PBS/0.1% Tween20®. The wells are treated overnight at 4° C. with 200 μL of a 5% milk solution in 1× PBS/0.1% Tween20®. The solution is then discarded, and the plate is drained dry.
The test is carried out as follows:
Negative control (lowest signal level): 100 μL of buffer ([…] Tris-HCl, 250 mM NaCl, pH 8.0);
Positive control (highest signal level): 50 μL of buffer and 50 μL of a test solution at 25 (library screening) or 3 μM (screening of analogue molecules) of the PscE protein;
Test of the inhibitors: 40 μL buffer, 50 μL of a solution at 25 μM (library screening) or 3 μM (screening of analogue molecules) of PscE protein and 10 μL of the solution containing the inhibitor to be tested.
The solutions are left for 4 h at room temperature.
The wells are washed three times with 200 μL of 1× PBS/0.1% Tween20®. The anti-PscE antibody diluted to 1:2,000 in 1× PBS/0.1% Tween20®, 50 μL, is added and the whole is left 2 h at room temperature. The wells are washed three times with 200 μL of 1× PBS/0.1% Tween20®. The HRP-conjugated anti-mouse antibody is diluted to 1:5,000 in 1× PBS/0.1% Tween20® and 50 μL is added and left for 2 h at room temperature. The wells are washed three times with 200 μL of 1× PBS/0.1% Tween20®.
The ELISA test is developed by adding 50 μL of TMB reagent followed by incubation for 15 minutes at room temperature in the dark. The reaction is stopped by adding 50 μL of 2N HCl. The plate is read at 450 nm.

T1 sequence (Q9I317 whole entry): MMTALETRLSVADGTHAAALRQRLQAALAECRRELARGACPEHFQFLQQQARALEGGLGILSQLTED
T1 sequence (P95435 whole entry): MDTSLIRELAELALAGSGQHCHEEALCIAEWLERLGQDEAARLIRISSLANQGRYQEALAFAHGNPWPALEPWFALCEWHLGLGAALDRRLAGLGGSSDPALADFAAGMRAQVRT

CC1(C)CC[C@]2(C(=O)O)CC[C@]3(C)C(=CC[C@@H]4[C@@]5(C)CC[C@H](O)[C@@](C)(CO)[C@@H]5CC[C@]43C)[C@@H]2C1 [Hederagenin, reference compound]
inhibition at 25 µM: 58%

CC(=O)Oc1c(-c2cn(CCCCOCCCc3ccc[n+](CCCCOCCCc4cccnc4)c3)nn2)cc(Cl)c2cccnc12 [molecule 35, 3-(3-(4-(4-(8-acetoxy-5-chloroquinolin-7-yl)-1H-1,2,3-triazol-1-yl)butoxy)propyl)-1-(4-(3-(pyridin-3-yl)propoxy)butyl)pyridinium chloride]
inhibition at 50 µM: 29.8%

CC(=O)Oc1c(-c2cn(CCCCCCCCCCCCOCCCc3ccc[n+](CCCCCCCCOCCCc4cccnc4)c3)nn2)cc(Cl)c2cccnc12 [molecule 49, 3-(3-(12-(4-(8-acetoxy-5-chloroquinolin-7-yl)-1H-1,2,3-triazol-1-yl)dodecyloxy)propyl)-1-(8-(3-(pyridin-3-yl)propoxy)octyl)pyridinium chloride]
inhibition at 50 µM: 69.8%
inhibitory effect compared with clioquinol: superior to clioquinol

CC(=O)Oc1c(-c2cn(CCCCCCCCCCOCCCc3ccc[n+](CCCCCCCCCCCCOCCCc4cccnc4)c3)nn2)cc(Cl)c2cccnc12 [molecule 50, 3-(3-(10-(4-(8-acetoxy-5-chloroquinolin-7-yl)-1H-1,2,3-triazol-1-yl)decyloxy)propyl)-1-(12-(3-(pyridin-3-yl)propoxy)dodecyl)pyridinium chloride]
inhibition at 50 µM: 18.9%

CC(=O)Oc1c(-c2cn(CCCCCCCCCCCCOCCCc3ccc[n+](CCCCCCCCCCCCOCCCc4cccnc4)c3)nn2)cc(Cl)c2cccnc12 [molecule 52, 3-(3-(12-(4-(8-acetoxy-5-chloroquinolin-7-yl)-1H-1,2,3-triazol-1-yl)dodecyloxy)propyl)-1-(12-(3-(pyridin-3-yl)propoxy)dodecyl)pyridinium chloride]
inhibition at 50 µM: 3.4%

O=C(O)CN(CCN(CC(=O)O)CC(=O)O)CCN(CC(=O)O)CC(=O)O [Pentetic acid, reference compound]
% inhibition PscE-PscG at 50 μm (primary screening of libraries, 50 μm compound, PscG 1 μM, PscE solution 25 μM): 94%

NC(CO)C(=O)NNCc1ccc(O)c(O)c1O (stereo not shown) [Benserazide, reference compound]
IC50: 11 µM
inhibition at 25 µM: 86.3%

CC(=O)Oc1c(-c2cn(CCCCCCOCCCc3ccc[n+](CCCCCCCCCCCCOCCCc4cccnc4)c3)nn2)cc(Cl)c2cccnc12 [molecule 46, 3-(3-(6-(4-(8-acetoxy-5-chloroquinolin-7-yl)-1H-1,2,3-triazol-1-yl)hexyloxy)propyl)-1-(12-(3-(pyridin-3-yl)propoxy)dodecyl)pyridinium chloride]
PscE-PscG at 50 μM: no inhibition

[N-]=[N+]=NCCCCOCCCc1ccc[n+](CCCCCCCCOCCCc2cccnc2)c1 [molecule 20, 3-(3-(4-azidobutoxy)propyl)-1-(8-(3-(pyridin-3-yl)propoxy)octyl)pyridinium chloride]
PscE-PscG at 50 μM: no inhibition

CC(=O)Oc1c(-c2cn(CCCCCCCCOCCCc3ccc[n+](CCCCCCCCCCOCCCc4cccnc4)c3)nn2)cc(Cl)c2cccnc12 [molecule 47, 3-(3-(8-(4-(8-acetoxy-5-chloroquinolin-7-yl)-1H-1,2,3-triazol-1-yl)octyloxy)propyl)-1-(10-(3-(pyridin-3-yl)propoxy)decyl)pyridinium chloride]
PscE-PscG at 50 μM: no inhibition

O=c1c(O)c(-c2cc(O)c(O)c(O)c2)oc2cc(O)cc(O)c12 [Myricetin, reference compound]
inhibition at 25 µM: 80.5%

[N-]=[N+]=NCCCCCCOCCCc1ccc[n+](CCCCOCCCc2cccnc2)c1 [molecule 19, 3-(3-(6-azidohexyloxy)propyl)-1-(4-(3-(pyridin-3-yl)propoxy)butyl)pyridinium chloride]
inhibition at 50 µM: 19.8%

CC(=O)Oc1c(-c2cn(CCCCCCOCCCc3ccc[n+](CCCCOCCCc4cccnc4)c3)nn2)cc(Cl)c2cccnc12 [molecule 37, 3-(3-(6-(4-(8-acetoxy-5-chloroquinolin-7-yl)-1H-1,2,3-triazol-1-yl)hexyloxy)propyl)-1-(4-(3-(pyridin-3-yl)propoxy)butyl)pyridinium chloride]
inhibition at 50 µM: 92.5%
inhibitory effect compared with clioquinol: superior to clioquinol
